In publication PMC10780633, “Novel Multi-Target Agents Based on the Privileged Structure of 4-Hydroxy-2-quinolinone” (Molecules, 2023):

Legend:
soybean lipoxygenase = target: T1, soybean lipoxygenase (Glycine max, UniProt P08170); experiment: Soybean LOX inhibition in vitro (UV absorbance-based assay); assay type: biochemical
T1 construct: purchased Sigma Chemical, Co. (St. Louis, MO, USA)
T1 sequence (P08170 1-839): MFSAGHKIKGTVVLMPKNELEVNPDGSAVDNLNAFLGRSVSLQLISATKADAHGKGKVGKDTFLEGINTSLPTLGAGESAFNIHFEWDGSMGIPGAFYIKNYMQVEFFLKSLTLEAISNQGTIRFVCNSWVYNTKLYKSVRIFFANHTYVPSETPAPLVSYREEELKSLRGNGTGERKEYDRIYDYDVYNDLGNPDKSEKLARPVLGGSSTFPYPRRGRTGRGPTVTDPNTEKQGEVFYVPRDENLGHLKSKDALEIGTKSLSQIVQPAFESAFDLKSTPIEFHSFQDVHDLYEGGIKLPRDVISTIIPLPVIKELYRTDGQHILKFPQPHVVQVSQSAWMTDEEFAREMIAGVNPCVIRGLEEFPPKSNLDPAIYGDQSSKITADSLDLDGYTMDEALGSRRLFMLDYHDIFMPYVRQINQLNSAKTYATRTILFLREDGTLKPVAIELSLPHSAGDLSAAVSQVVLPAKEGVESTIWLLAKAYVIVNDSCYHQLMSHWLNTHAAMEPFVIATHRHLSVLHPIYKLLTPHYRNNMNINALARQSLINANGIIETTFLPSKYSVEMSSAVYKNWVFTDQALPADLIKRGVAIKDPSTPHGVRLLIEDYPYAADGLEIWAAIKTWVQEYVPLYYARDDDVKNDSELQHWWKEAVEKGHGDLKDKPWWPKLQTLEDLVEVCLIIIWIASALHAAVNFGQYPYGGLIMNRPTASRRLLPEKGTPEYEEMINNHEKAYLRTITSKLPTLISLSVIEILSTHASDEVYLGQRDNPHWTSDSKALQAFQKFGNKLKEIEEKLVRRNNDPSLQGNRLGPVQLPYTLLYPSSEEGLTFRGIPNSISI
Method: For this study, the UV absorbance-based soybean LOX assay was used.
The assay for the determination of the inhibition of soybean LOX was performed according to the methods of Hadjipavlou-Litina et al., which we have also used in our previous works.

[1] = Interaction with the stable free radical DPPH (reducing activity); settings: for Interaction with the Free Radical DPPH (%): 100 μM; for DPPH radical scavenging activity, time not specified: reaction time not given
Method: (§1) In this work, the carboxamides 3a–3u, the quinolinone–cinnamic or benzoic acid hybrids 11a–11g and the reverse amides 16a–16c were tested for their antioxidant activity via five in vitro techniques; (i) the interaction with the stable free radical 2,2-diphenyl-1-picrylhydrazyl (DPPH); (ii) the inhibition of lipid peroxidation; (iii) the hydroxyl radical scavenging ability; (iv) the 2,2-azino-bis(3-ethylbenzothiazoline-6-sulfonic acid (ABTS) radical cation (ABTS·^+) reduction; and (v) the superoxide anion radical scavenging ability.

[2] = Non-enzymatic superoxide anion radical scavenging assay (PMS); settings: 0.1 mM
Method: as §1
The experimental technique used for this assay was performed according to our previous works. Caffeic acid was used as an appropriate standard.

[3] = Inhibition of lipid peroxidation of linoleic acid induced by AAPH radical; settings: 100 μM
Method: as §1
The assay for the determination of the inhibition of linoleic acid peroxidation induced by the free radical initiator […](2-amidinopropane) dihydrochloride (AAPH) was performed according to the methods of Hadjipavlou-Litina et al., which we have also used in our previous works.

[4] = ABTS radical cation decolorization assay; settings: 0.1 mM
Method: as §1
The experimental technique used in this section was performed according to the methods of Pontiki et al.. The results were compared to the appropriate standard inhibitor Trolox.

[5] = Competition with DMSO for hydroxyl radicals; settings: 0.1 mM
Method: as §1
The assay was performed according to the methods of Pontiki et al. Trolox was used as a reference compound [78].

Compound	Inhibition of Soybean Lipoxygenase % at 0.1 mM (soybean lipoxygenase; 0.1 mM)	inhibition at 100 µM (soybean lipoxygenase; 0.1 mM) [%]	IC50 (soybean lipoxygenase) [µM]	Interaction with the Free Radical DPPH (%) ([1]; 20 min)	Interaction with the Free Radical DPPH (%) ([1]; 60 min)	PMS% (superoxide anion radical scavenging) [2]	Inhibition of Lipid Peroxidation of Linoleic Acid Induced by AAPH Radical (%) [3]	ABTS% (ABTS radical cation decolorization) [4]	OH% (hydroxyl radical scavenging) [5]	DPPH radical scavenging activity, time not specified [1]
O=C(O)/C=C/c1ccc(O)c(O)c1 [Caffeic acid, reference compound]						23%				
CCCNC(=O)c1c(O)c2ccccc2n(-c2ccccc2)c1=O [Compound 3b, 4-hydroxy-2-oxo-1-phenyl-N-propyl-1,2-dihydroquinoline-3-carboxamide]		45		2.7	11.8	84.6%	100%	35.5%	40.8%	
Cn1c(=O)c(C(=O)NCCO)c(O)c2ccccc21 [Compound 3c, 4-hydroxy-N-(2-hydroxyethyl)-1-methyl-2-oxo-1,2-dihydroquinoline-3-carboxamide]			52	3.3	10.7	76.9%	100%	25.6%	39.8%	
O=C(NCCO)c1c(O)c2ccccc2n(-c2ccccc2)c1=O [Compound 3d, 4-hydroxy-N-(2-hydroxyethyl)-2-oxo-1-phenyl-1,2-dihydroquinoline-3-carboxamide]	inactive and no			15.9	20.8	66.6%	32.8%	no activity and no	no	
CCCCCCCNC(=O)c1c(O)c2ccccc2n(C)c1=O [Compound 3e, N-heptyl-4-hydroxy-1-methyl-2-oxo-1,2-dihydroquinoline-3-carboxamide]	no activity and no			6.6	12.2	66.6%	inactive and no	2.6%	86.1%	
Cn1c(=O)c(C(=O)Nc2ccc(O)cc2)c(O)c2ccccc21 [Compound 3f, 4-hydroxy-N-(4-hydroxyphenyl)-1-methyl-2-oxo-1,2-dihydroquinoline-3-carboxamide]			49	39.3	48.6		100%	77.3%	67.7%	
O=C(Nc1ccc(O)cc1)c1c(O)c2ccccc2n(-c2ccccc2)c1=O [Compound 3g, 4-hydroxy-N-(4-hydroxyphenyl)-2-oxo-1-phenyl-1,2-dihydroquinoline-3-carboxamide]			27.5	40.7	51.7	no	100%	72.4%	67.7%	
Cc1c(C)c2c(c(C)c1O)CCC(C)(C(=O)O)O2 (centres unmarked) [Trolox, reference compound]							88.0%	93.0%	82.0%	

Second part, led by results:

Inhibition of Soybean Lipoxygenase % at 0.1 mM (soybean lipoxygenase; 0.1 mM)	inhibition at 100 µM (soybean lipoxygenase; 0.1 mM) [%]	IC50 (soybean lipoxygenase) [µM]	Compound	Interaction with the Free Radical DPPH (%) ([1]; 20 min)	Interaction with the Free Radical DPPH (%) ([1]; 60 min)	PMS% (superoxide anion radical scavenging) [2]	Inhibition of Lipid Peroxidation of Linoleic Acid Induced by AAPH Radical (%) [3]	ABTS% (ABTS radical cation decolorization) [4]	OH% (hydroxyl radical scavenging) [5]	DPPH radical scavenging activity, time not specified [1]
no			4-hydroxy-N-(2-hydroxy-1-phenylethyl)-1-methyl-2-oxo-1,2-dihydroquinoline-3-carboxamide [Compound 3p]	19.5	6.6	no	100%	no		
24.0%			4-hydroxy-N-(2-hydroxy-1-phenylethyl)-2-oxo-1-phenyl-1,2-dihydroquinoline-3-carboxamide [Compound 3q]	23.8	10.0	no	100%	no		
		10	CC1CCCCC1NC(=O)c1c(O)c2ccccc2n(C)c1=O (centres unmarked) [Compound 3h, 4-hydroxy-1-methyl-N-(2-methylcyclohexyl)-2-oxo-1,2-dihydroquinoline-3-carboxamide]	6.0	8.1	no	31%	no	78.6%	
inactive and no			CC1CCCCC1NC(=O)c1c(O)c2ccccc2n(-c2ccccc2)c1=O (centres unmarked) [Compound 3i, 4-hydroxy-N-(2-methylcyclohexyl)-2-oxo-1-phenyl-1,2-dihydroquinoline-3-carboxamide]	5.2	3.7	no	36%	no	78.1%	
		100	Cn1c(=O)c(C(=O)Nc2ccccc2O)c(O)c2ccccc21 [Compound 3j, 4-hydroxy-N-(2-hydroxyphenyl)-1-methyl-2-oxo-1,2-dihydroquinoline-3-carboxamide]	32.5	46.5	no	32.8%	49.7%	100%	
		315	Cc1ccccc1NC(=O)c1c(O)c2ccccc2n(C)c1=O [Compound 3k, 4-hydroxy-1-methyl-2-oxo-N-(o-tolyl)-1,2,dihydroquinoline-3carboxamide]	1.4	11.8	61.5%	41.4%	54.5%	totally inactive and no	inactive
		45	Cc1ccc(NC(=O)c2c(O)c3ccccc3n(C)c2=O)cc1 [Compound 3l, 4-hydroxy-1-methyl-2-oxo-N-(p-tolyl)-1,2-dihydroquinoline-3-carboxamide]	2.6	2.6	no	no	no	53.7%	inactive
inactive and no			O=C(Nc1ccncc1)c1c(O)c2ccccc2n(-c2ccccc2)c1=O [Compound 3u, 4-hydroxy-2-oxo-1-phenyl-N-(pyridin-4-yl)-1,2-dihydroquinoline-3-carboxamide]	19.3	8.3	no	16.4%	no		
		82.5	Cn1c(=O)c(NC(=O)c2ccccc2O)c(O)c2ccccc21 [Compound 16c, 2-hydroxy-N-(4-hydroxy-1-methyl-2-oxo-1,2-dihydroquinolin-3-yl)benzamide]	25.0	28.0		88.0%			
